# Where two headings read alike, the source gives them in different places.
# How the values were obtained:
# [1] = tested on: M. marseiliense; assay: microbe, parasite or virus in culture; assay type: cell-based; settings: Mycobacterium
# [2] = tested on: clinically isolated MDR, XDR, and TDR M. tuberculosis strains; assay: microbe, parasite or virus in culture; assay type: cell-based; settings: Mycobacterium tuberculosis
# [3] = tested on: M. marinum; assay: microbe, parasite or virus in culture; assay type: cell-based; settings: Mycobacterium marinum
# [4] = tested on: M. massiliense; assay: microbe, parasite or virus in culture; assay type: cell-based, Mycobacterium massiliense; settings: Mycobacteroides abscessus
# [5] = tested on: M. chitae; assay: microbe, parasite or virus in culture; assay type: cell-based, Mycobacterium chitae; settings: Mycolicibacterium chitae
# [6] = tested on: M. goodie; assay: microbe, parasite or virus in culture; assay type: cell-based; settings: Mycobacterium
# [7] = tested on: M. abscessus; assay: microbe, parasite or virus in culture; assay type: cell-based, Mycobacterium abscessus; settings: Mycobacteroides abscessus
# [8] = tested on: M. arupense; assay: microbe, parasite or virus in culture; assay type: cell-based, Mycobacterium arupense; settings: Mycolicibacter arupensis
# [9] = tested on: M. tuberculosis H37Rv; assay: microbe, parasite or virus in culture; assay type: cell-based, Mycobacterium tuberculosis
# [10] = tested on: M. kyorinense; assay: microbe, parasite or virus in culture; assay type: cell-based; settings: Mycobacterium kyorinense
# [11] = tested on: M. smegmatis; assay: microbe, parasite or virus in culture; assay type: cell-based, Mycobacterium smegmatis; settings: Mycolicibacterium smegmatis
# [12] = tested on: M. xenopi; assay: microbe, parasite or virus in culture; assay type: cell-based; settings: Mycobacterium xenopi
# [13] = tested on: M. szulgai; assay: microbe, parasite or virus in culture; assay type: cell-based; settings: Mycobacterium szulgai
# [14] = tested on: M. bolletii; assay: microbe, parasite or virus in culture; assay type: cell-based, Mycobacterium bolletii; settings: Mycobacteroides abscessus
# [15] = tested on: M. peregrinum; assay: microbe, parasite or virus in culture; assay type: cell-based, Mycobacterium peregrinum; settings: Mycolicibacterium peregrinum
# [16] = tested on: M. phlei; assay: microbe, parasite or virus in culture; assay type: cell-based, Mycobacterium phlei; settings: Mycolicibacterium phlei
# [17] = tested on: M. gilvum; assay: microbe, parasite or virus in culture; assay type: cell-based, Mycobacterium gilvum; settings: Mycolicibacterium gilvum
# [18] = tested on: M. fortuitum; assay: microbe, parasite or virus in culture; assay type: cell-based, Mycobacterium fortuitum; settings: Mycolicibacterium fortuitum
# [19] = tested on: M. intracellulare; assay: microbe, parasite or virus in culture; assay type: cell-based; settings: Mycobacterium intracellulare
# [20] = tested on: Candida albicans; assay: Broth dilution MIC (CLSI); assay type: cell-based; settings: read-out: MIC
# Description: (§1) Bacteria (Acinetobacter baumannii NCCP 14782, Citrobacter freundii NCCP 14766, Enterobacter aerogenes NCCP 14761, Escherichia coli NCCP 14762, Escherichia coli O157 NCCP 14541, Klebsiella pneumoniae NCCP 14764, Proteus mirabilis NCCP 14763, Proteus vulgaris NCCP 14765, Pseudomonas aeruginosa NCCP 14781, Salmonella Enteritidis NCCP 14771, Salmonella Paratyphi A NCCP 14759, Salmonella Typhimurium NCCP 16207, Serratia marcescens NCCP 14770, Shigella boydii NCCP 14745, Shigella dysenteriae NCCP 14746, Shigella flexneri NCCP 14744, Shigella sonnei NCCP 14773, Bacillus subtilis NCCP 11101, Corynebacterium diphtheriae NCCP 10353, Staphylococcus aureus MSSA NCCP 14780, Staphylococcus aureus MRSA NCCP 14769, Staphylococcus epidermidis NCCP 14768, Streptococcus pneumoniae NCCP 14774) and fungi (Aspergillus fumigatus NCCP 22454, Candida albicans NCCP 32557, Cryptococcus neoformans NCCP 32559, Microsporum canis NCCP 22454, Rhizopus oryzae NCCP 22458, Saccharomyces cerevisiae NCCP 32558, Trichophyton rubrum NCCP 22456) strains were obtained from the National Culture Collection for Pathogens (NCCP) (Chungbuk, Korea). The MIC of each agent was determined following the Clinical and Laboratory Standards Institute (CLSI).[40]
# [21] = tested on: Cryptococcus neoformans; assay: Broth dilution MIC (CLSI); assay type: cell-based; settings: read-out: MIC
# Description: as §1
# [22] = tested on: Corynebacterium diphtheriae; assay: Broth dilution MIC (CLSI); assay type: cell-based; settings: read-out: MIC
# Description: as §1
# [23] = tested on: Salmonella Paratyphi A; assay: Broth dilution MIC (CLSI); assay type: cell-based; settings: Salmonella enterica; Salmonella Paratyphi A; read-out: MIC
# Description: as §1
# [24] = tested on: Pseudomonas aeruginosa; assay: Broth dilution MIC (CLSI); assay type: cell-based; settings: read-out: MIC
# Description: as §1
# [25] = tested on: Klebsiella pneumoniae; assay: Broth dilution MIC (CLSI); assay type: cell-based; settings: read-out: MIC
# Description: as §1
# [26] = tested on: Staphylococcus aureus, MRSA; assay: Broth dilution MIC (CLSI); assay type: cell-based; settings: read-out: MIC
# Description: as §1
# [27] = tested on: Proteus mirabilis; assay: Broth dilution MIC (CLSI); assay type: cell-based; settings: read-out: MIC
# Description: as §1
# [28] = tested on: Saccharomyces cerevisiae; assay: Broth dilution MIC (CLSI); assay type: cell-based; settings: read-out: MIC
# Description: as §1
# [29] = tested on: Aspergillus fumigatus; assay: Broth dilution MIC (CLSI); assay type: cell-based; settings: read-out: MIC
# Description: as §1
# [30] = tested on: Trichophyton rubrum; assay: Broth dilution MIC (CLSI); assay type: cell-based; settings: read-out: MIC
# Description: as §1
# [31] = tested on: Salmonella Typhimurium; assay: Broth dilution MIC (CLSI); assay type: cell-based; settings: Salmonella enterica; Salmonella Typhimurium; read-out: MIC
# Description: as §1
# [32] = tested on: Salmonella Enteritidis; assay: Broth dilution MIC (CLSI); assay type: cell-based; settings: Salmonella enterica; Salmonella Enteritidis; read-out: MIC
# Description: as §1
# [33] = tested on: Microsporum canis; assay: Broth dilution MIC (CLSI); assay type: cell-based; settings: read-out: MIC
# Description: as §1
# [34] = tested on: Proteus vulgaris; assay: Broth dilution MIC (CLSI); assay type: cell-based; settings: read-out: MIC
# Description: as §1
# [35] = tested on: Rhizopus oryzae; assay: Broth dilution MIC (CLSI); assay type: cell-based; settings: Rhizopus arrhizus; Rhizopus oryzae; read-out: MIC
# Description: as §1
# [36] = tested on: Bacillus subtilis; assay: Broth dilution MIC (CLSI); assay type: cell-based; settings: read-out: MIC
# Description: as §1
# [37] = tested on: Escherichia coli; assay: Broth dilution MIC (CLSI); assay type: cell-based; settings: read-out: MIC
# Description: as §1
# [38] = tested on: Enterobacter aerogenes; assay: Broth dilution MIC (CLSI); assay type: cell-based; settings: Klebsiella aerogenes; Enterobacter aerogenes; read-out: MIC
# Description: as §1
# [39] = tested on: Citrobacter freundii; assay: Broth dilution MIC (CLSI); assay type: cell-based; settings: read-out: MIC
# Description: as §1
# [40] = tested on: Escherichia coli O157; assay: Broth dilution MIC (CLSI); assay type: cell-based; settings: read-out: MIC
# Description: as §1
# [41] = tested on: Streptococcus pneumoniae; assay: Broth dilution MIC (CLSI); assay type: cell-based; settings: read-out: MIC
# Description: as §1
# [42] = tested on: Shigella dysenteriae; assay: Broth dilution MIC (CLSI); assay type: cell-based; settings: read-out: MIC
# Description: as §1
# [43] = Mycobacterium tuberculosis, H37RV, read-out: MIC
smiles,measurement,setting,value
"NNC(=O)c1ccncc1 [INH, isoniazid, reference compound]",MIC,[1],> 100 µg/mL
same,MIC,[2]; TDR-1,12.5 µg/mL
same,MIC,[2]; TDR-2,6.3 µg/mL
same,MIC,[2]; TDR-3,12.5 µg/mL
same,MIC,[3],25 µg/mL
same,MIC,[4],12.5 µg/mL
same,MIC,[5],12.5 µg/mL
same,MIC,[6],25 µg/mL
same,MIC,[7],> 100 µg/mL
same,MIC,[8],50 µg/mL
same,MIC,[9]; [43],0.4 µg/mL
same,MIC,[10],3.1 µg/mL
same,MIC,[11],25 µg/mL
same,MIC,[12],1.6 µg/mL
same,MIC,[13],1.6 µg/mL
same,MIC,[14],> 100 µg/mL
same,MIC,[15],6.3 µg/mL
same,MIC,[16],> 100 µg/mL
same,MIC,[17],12.5 µg/mL
same,MIC,[18],25 µg/mL
same,MIC,[19],25 µg/mL
same,MIC,[20],> 100 µg/mL
same,MIC,[21],> 100 µg/mL
same,MIC,[22],> 100 µg/mL
same,MIC,[23],> 100 µg/mL
same,MIC,[24],> 100 µg/mL
same,MIC,[25],> 100 µg/mL
same,MIC,[26],> 100 µg/mL
same,MIC,[27],> 100 µg/mL
same,MIC,[28],> 100 µg/mL
same,MIC,[29],> 100 µg/mL
same,MIC,[30],> 100 µg/mL
same,MIC,[31],> 100 µg/mL
same,MIC,[32],> 100 µg/mL
same,MIC,[33],> 100 µg/mL
same,MIC,[34],> 100 µg/mL
same,MIC,[35],> 100 µg/mL
same,MIC,[36],> 100 µg/mL
same,MIC,[37],> 100 µg/mL
same,MIC,[38],> 100 µg/mL
same,MIC,[39],> 100 µg/mL
same,MIC,[40],> 100 µg/mL
same,MIC,[41],> 100 µg/mL
same,MIC,[42],> 100 µg/mL
"CCCCOc1ccc2cc(CN3C(=O)CC[C@H]3C(=O)OC)c3cc(OC)c(OC)cc3c2c1 [PP2S, Methyl (S)-1-((3-butoxy-6,7-dimethoxyphenanthren-9-yl)methyl)-5-oxopyrrolidine-2-carboxylate]",MIC,[1],> 100 µg/mL
same,MIC,[2]; TDR-1,1.6 µg/mL
same,MIC,[2]; TDR-2,0.2 µg/mL
same,MIC,[2]; TDR-3,1.6 µg/mL
same,MIC,[3],> 100 µg/mL
same,MIC,[4],> 100 µg/mL
same,MIC,[5],> 100 µg/mL
same,MIC,[6],> 100 µg/mL
same,MIC,[7],> 100 µg/mL
same,MIC,[8],> 100 µg/mL
same,MIC,[9],0.4 µg/mL
same,in vitro antitubercular activities (S-form vs R-form),[9],had in vitro antitubercular activities
same,MIC,[9]; [43],0.8 µg/mL
same,MIC,[10],> 100 µg/mL
same,MIC,[11],> 100 µg/mL
same,MIC,[12],> 100 µg/mL
same,MIC,[13],> 100 µg/mL
same,MIC,[14],> 100 µg/mL
same,MIC,[15],> 100 µg/mL
same,MIC,[16],> 100 µg/mL
same,MIC,[17],> 100 µg/mL
same,MIC,[18],> 100 µg/mL
same,MIC,[19],> 100 µg/mL
same,MIC,[20],> 100 µg/mL
same,MIC,[21],> 100 µg/mL
same,MIC,[22],> 100 µg/mL
same,MIC,[23],> 100 µg/mL
same,MIC,[24],> 100 µg/mL
same,MIC,[25],> 100 µg/mL
same,MIC,[26],> 100 µg/mL
same,MIC,[27],> 100 µg/mL
same,MIC,[28],> 100 µg/mL
same,MIC,[29],> 100 µg/mL
same,MIC,[30],> 100 µg/mL
same,MIC,[31],> 100 µg/mL
same,MIC,[32],> 100 µg/mL
same,MIC,[33],> 100 µg/mL
same,MIC,[34],> 100 µg/mL
same,MIC,[35],> 100 µg/mL
same,MIC,[36],> 100 µg/mL
same,MIC,[37],> 100 µg/mL
same,MIC,[38],> 100 µg/mL
same,MIC,[39],> 100 µg/mL
same,MIC,[40],> 100 µg/mL
same,MIC,[41],> 100 µg/mL
same,MIC,[42],> 100 µg/mL
